Results as given in PubChem BioAssay AID1963423 (Molecular Pharmacology Branch, DTP, NCI, 2024).
pIC50: −log10 of the molar value. Values belong to the compound of their own block, whether it stands above or below them.

Tested on: 439559-082-T-J2-PDC complex spheroid growth
Assay: Anticancer human tumor 439559-082-T-J2-PDC patient-derived colon adenocarcinoma cell line growth inhibition [Asc]
Details: for pIC50: curve of first compound; for viability, T/C: stronger effect = lower value
Summary of the method: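 Tumor cells were grown as multicellular spheroids with stromal HUVEC and mesenchymal stem cells and treated singly or in combination. Concentrations fell in half-log steps from the clinical Cmax, or from 10 microM where none was known.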

[1] = second compound 0.1 µM, first compound 0.00316 µM
[2] = second compound 0.1 µM, first compound 0.01 µM
[3] = second compound 0.1 µM, first compound 0.0316 µM
[4] = second compound 0.1 µM, first compound 0.1 µM
[5] = second compound 0.1 µM, first compound 0.316 µM
[6] = second compound 0.1 µM, first compound 1 µM
[7] = second compound 0.316 µM, first compound 0.00316 µM
[8] = second compound 0.316 µM, first compound 0.01 µM
[9] = second compound 0.316 µM, first compound 0.0316 µM
[10] = second compound 0.316 µM, first compound 0.1 µM
[11] = second compound 0.316 µM, first compound 0.316 µM
[12] = second compound 0.316 µM, first compound 1 µM
[13] = second compound 1 µM, first compound 0.00316 µM
[14] = second compound 1 µM, first compound 0.01 µM
[15] = second compound 1 µM, first compound 0.0316 µM
[16] = second compound 1 µM, first compound 0.1 µM
[17] = second compound 1 µM, first compound 0.316 µM
[18] = second compound 1 µM, first compound 1 µM
[19] = second compound 3.16 µM, first compound 0.00316 µM
[20] = second compound 3.16 µM, first compound 0.01 µM
[21] = second compound 3.16 µM, first compound 0.0316 µM
[22] = second compound 3.16 µM, first compound 0.1 µM
[23] = second compound 3.16 µM, first compound 0.316 µM
[24] = second compound 3.16 µM, first compound 1 µM
[25] = second compound 10 µM, first compound 0.00316 µM
[26] = second compound 10 µM, first compound 0.01 µM
[27] = second compound 10 µM, first compound 0.0316 µM
[28] = second compound 10 µM, first compound 0.1 µM
[29] = second compound 10 µM, first compound 0.316 µM
[30] = second compound 10 µM, first compound 1 µM
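Further: spheroids exposed to agents for 7 days starting day 3 after seeding.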
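Wherever viability, T/C is given: percent of DMSO vehicle control viability with 100% = vehicle.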

pIC50 (second compound 0.1 µM): < 6.00 | pIC50 (second compound 0.316 µM): < 6.00 | pIC50 (second compound 1 µM): < 6.00 | pIC50 (second compound 3.16 µM): < 6.00 | pIC50 (second compound 10 µM): < 6.00
Compound: CCN1CCN(Cc2ccc(Nc3ncc(F)c(-c4cc(F)c5nc(C)n(C(C)C)c5c4)n3)nc2)CC1 + Cc1c(S(C)(=O)=O)c(-c2cc(F)cc(N3CCN(c4ccc(NS(=O)(=O)c5ccc(NC(CCN6CCC(C(=O)OCCCP(=O)(O)O)CC6)CSc6ccccc6)c(S(=O)(=O)C(F)(F)F)c5)cc4)CC3)c2)c(-c2ccc(Cl)cc2)n1C(C)C
viability, T/C [1]: 93.5% | viability, T/C [2]: 107% | viability, T/C [3]: 94.2% | viability, T/C [4]: 85.3% | viability, T/C [5]: 92.8% | viability, T/C [6]: 80.5% | viability, T/C [7]: 101% | viability, T/C [8]: 102% | viability, T/C [9]: 103% | viability, T/C [10]: 78.5% | viability, T/C [11]: 84.2% | viability, T/C [12]: 73.4% | viability, T/C [13]: 96.5% | viability, T/C [14]: 93.5% | viability, T/C [15]: 94.3% | viability, T/C [16]: 80.5% | viability, T/C [17]: 80% | viability, T/C [18]: 70% | viability, T/C [19]: 85.1% | viability, T/C [20]: 92.5% | viability, T/C [21]: 98.9% | viability, T/C [22]: 72.4% | viability, T/C [23]: 69.4% | viability, T/C [24]: 68.6% | viability, T/C [25]: 82.4% | viability, T/C [26]: 81.7% | viability, T/C [27]: 83.2% | viability, T/C [28]: 63.5% | viability, T/C [29]: 61.2% | viability, T/C [30]: 50.1%

pIC50 (second compound 0.1 µM): < 7.00 | pIC50 (second compound 0.316 µM): < 7.00 | pIC50 (second compound 1 µM): < 7.00 | pIC50 (second compound 3.16 µM): < 7.00 | pIC50 (second compound 10 µM): < 7.00
Compound: Cn1ncnc1[C@H]1c2n[nH]c(=O)c3cc(F)cc(c23)N[C@@H]1c1ccc(F)cc1 + Cc1c(S(C)(=O)=O)c(-c2cc(F)cc(N3CCN(c4ccc(NS(=O)(=O)c5ccc(NC(CCN6CCC(C(=O)OCCCP(=O)(O)O)CC6)CSc6ccccc6)c(S(=O)(=O)C(F)(F)F)c5)cc4)CC3)c2)c(-c2ccc(Cl)cc2)n1C(C)C
viability, T/C (second compound 0.1 µM, first compound 0.000316 µM): 102% | viability, T/C (second compound 0.1 µM, first compound 0.001 µM): 106% | viability, T/C [1]: 103% | viability, T/C [2]: 85.5% | viability, T/C [3]: 98% | viability, T/C [4]: 87.7% | viability, T/C (second compound 0.316 µM, first compound 0.000316 µM): 100% | viability, T/C (second compound 0.316 µM, first compound 0.001 µM): 98.8% | viability, T/C [7]: 102% | viability, T/C [8]: 90.2% | viability, T/C [9]: 90.4% | viability, T/C [10]: 84.8% | viability, T/C (second compound 1 µM, first compound 0.000316 µM): 91% | viability, T/C (second compound 1 µM, first compound 0.001 µM): 93.3% | viability, T/C [13]: 102% | viability, T/C [14]: 83% | viability, T/C [15]: 85.4% | viability, T/C [16]: 81.1% | viability, T/C (second compound 3.16 µM, first compound 0.000316 µM): 85% | viability, T/C (second compound 3.16 µM, first compound 0.001 µM): 89.3% | viability, T/C [19]: 92.7% | viability, T/C [20]: 81.3% | viability, T/C [21]: 79.4% | viability, T/C [22]: 76.3% | viability, T/C (second compound 10 µM, first compound 0.000316 µM): 72.7% | viability, T/C (second compound 10 µM, first compound 0.001 µM): 74% | viability, T/C [25]: 75% | viability, T/C [26]: 76.8% | viability, T/C [27]: 70.8% | viability, T/C [28]: 66.5%

pIC50 (second compound 0.1 µM): < 5.00 | pIC50 (second compound 0.316 µM): < 5.00 | pIC50 (second compound 1 µM): < 5.00 | pIC50 (second compound 3.16 µM): < 5.00 | pIC50 (second compound 10 µM): < 5.00
Compound: O=C(c1cc(Cc2n[nH]c(=O)c3ccccc23)ccc1F)N1CCN(C(=O)C2CC2)CC1 + Cc1c(S(C)(=O)=O)c(-c2cc(F)cc(N3CCN(c4ccc(NS(=O)(=O)c5ccc(NC(CCN6CCC(C(=O)OCCCP(=O)(O)O)CC6)CSc6ccccc6)c(S(=O)(=O)C(F)(F)F)c5)cc4)CC3)c2)c(-c2ccc(Cl)cc2)n1C(C)C
viability, T/C [3]: 101% | viability, T/C [4]: 110% | viability, T/C [5]: 98.4% | viability, T/C [6]: 92.6% | viability, T/C (second compound 0.1 µM, first compound 3.16 µM): 98.1% | viability, T/C (second compound 0.1 µM, first compound 10 µM): 90.9% | viability, T/C [9]: 86% | viability, T/C [10]: 102% | viability, T/C [11]: 109% | viability, T/C [12]: 92.5% | viability, T/C (second compound 0.316 µM, first compound 3.16 µM): 99% | viability, T/C (second compound 0.316 µM, first compound 10 µM): 90.3% | viability, T/C [15]: 91.3% | viability, T/C [16]: 101% | viability, T/C [17]: 105% | viability, T/C [18]: 93% | viability, T/C (second compound 1 µM, first compound 3.16 µM): 92.4% | viability, T/C (second compound 1 µM, first compound 10 µM): 92.8% | viability, T/C [21]: 93% | viability, T/C [22]: 101% | viability, T/C [23]: 96.1% | viability, T/C [24]: 80% | viability, T/C (second compound 3.16 µM, first compound 3.16 µM): 98.4% | viability, T/C (second compound 3.16 µM, first compound 10 µM): 86.1% | viability, T/C [27]: 71.6% | viability, T/C [28]: 73.6% | viability, T/C [29]: 92.2% | viability, T/C [30]: 84.1% | viability, T/C (second compound 10 µM, first compound 3.16 µM): 76.5% | viability, T/C (second compound 10 µM, first compound 10 µM): 72.7%

pIC50 (second compound 0.1 µM): 6.70 | pIC50 (second compound 0.316 µM): 6.73 | pIC50 (second compound 1 µM): 6.85 | pIC50 (second compound 3.16 µM): 6.98 | pIC50 (second compound 10 µM): 7.25
Compound: O=C(c1ccc(F)c(F)c1Nc1ccc(I)cc1F)N1CC(O)([C@@H]2CCCCN2)C1 + Cc1c(S(C)(=O)=O)c(-c2cc(F)cc(N3CCN(c4ccc(NS(=O)(=O)c5ccc(NC(CCN6CCC(C(=O)OCCCP(=O)(O)O)CC6)CSc6ccccc6)c(S(=O)(=O)C(F)(F)F)c5)cc4)CC3)c2)c(-c2ccc(Cl)cc2)n1C(C)C
viability, T/C [1]: 96.7% | viability, T/C [2]: 105% | viability, T/C [3]: 76% | viability, T/C [4]: 57.5% | viability, T/C [5]: 47.7% | viability, T/C [6]: 16.9% | viability, T/C [7]: 96% | viability, T/C [8]: 103% | viability, T/C [9]: 79.8% | viability, T/C [10]: 59.5% | viability, T/C [11]: 42.6% | viability, T/C [12]: 11.5% | viability, T/C [13]: 88.8% | viability, T/C [14]: 96.1% | viability, T/C [15]: 84.6% | viability, T/C [16]: 48.5% | viability, T/C [17]: 38.2% | viability, T/C [18]: 7.87% | viability, T/C [19]: 91.6% | viability, T/C [20]: 90.9% | viability, T/C [21]: 76.3% | viability, T/C [22]: 45.4% | viability, T/C [23]: 29.9% | viability, T/C [24]: 4.98% | viability, T/C [25]: 76.5% | viability, T/C [26]: 68.7% | viability, T/C [27]: 68.3% | viability, T/C [28]: 32.6% | viability, T/C [29]: 19.1% | viability, T/C [30]: 2.9%
